Values joined by “and” are separate entries in the source; they are usually repeats but may differ in a detail not shown here. Equal values may be shown once.
Assay: In vitro metabolic blocking of HCV NS3/4a protease inhibitors by compound of formula (II) in human liver microsomes
Type: in vitro ADME
Details: for % Detected Compound, Incubation time: 30′, Compound of formula (II) / % Detected Compound, Incubation time: 120′, Compound of formula (II): 3 μM test compound + 10 μM compound of formula (II); for % Detected Compound, Incubation time: 30′, Compound of formula (II) / % Detected Compound, Incubation time: 120′, Compound of formula (II) / % Detected Compound, Incubation time: 30′, No Booster / % Detected Compound, Incubation time: 120′, No Booster: human liver microsomes 1 mg/ml, 37° C., % of initial concentration; for % Detected Compound, Incubation time: 30′, Compound of formula (II) / % Detected Compound, Incubation time: 30′, No Booster: 30 min; for % Detected Compound, Incubation time: 120′, Compound of formula (II) / % Detected Compound, Incubation time: 120′, No Booster: 120 min; for % Detected Compound, Incubation time: 30′, No Booster / % Detected Compound, Incubation time: 120′, No Booster: 3 μM test compound
Procedure: Different HCV NS3/4a protease inhibitors were tested in a metabolic blocking experiment using 3 μM test compound together with 10 μM of compound of formula (II) acting as a cytochrome P450 inhibitor (or booster).
Test compounds and compound of formula (II) were added to human liver microsomes (protein concentration 1 mg/ml) suspended in potassium phosphate buffer (pH=7.4), to get final reaction mixture concentrations of 3 μM test compound and 10 μM of compound of formula (II). In the non-boosted parallel reactions, compound of formula (II) was not added. Boiled human liver microsomes were used for blank experiments. After addition (in a 1:3 ratio) of a cofactor mixture consisting of β-nicotinamide adenine dinucleotide phosphate (β-NADP, 0.5 mg/ml, 653.2 μM), D-Glucose-6-phosphate (2 mg/ml, 7.1 mM), Glucose-6-phosphate dehydrogenase (1.5 U/ml) in 2% NaHCO3, the reaction mixture was incubated at 37° C. for 30 or 120 minutes after which the reaction was stopped by increasing the temperature to 95° C. Test compound concentrations were determined using HPLC-MS.
Values are percentages of test compound detected after the indicated incubation times as compared to the initial test compound concentration. In Table 3, each value is the mean of the results of two independent experiments. In Table 4, each value is the result of an independent experiment.

[1] = mean of two independent experiments
[2] = each value one independent experiment

SMILES: COc1ccc2c(O[C@@H]3C[C@H]4C(=O)N[C@]5(C(=O)O)C[C@H]5/C=C\CCCCC[C@H](NC(=O)OC5CCCC5)C(=O)N4C3)cc(-c3csc(NC(C)C)n3)nc2c1 [BILN-2061, reference compound]
- % Detected Compound, Incubation time: 30′, Compound of formula (II) [1]: 163%
- % Detected Compound, Incubation time: 120′, Compound of formula (II) [1]: 128%
- % Detected Compound, Incubation time: 30′, No Booster [1]: 129%
- % Detected Compound, Incubation time: 120′, No Booster [1]: 76%

SMILES: COc1ccc2c(O[C@@H]3C[C@H]4C(=O)N[C@]5(C(=O)NS(=O)(=O)C6CC6)C[C@H]5/C=C\CCCCN(C)C(=O)[C@@H]4C3)cc(-c3nc(C(C)C)cs3)nc2c1 [Compound 7]
- % Detected Compound, Incubation time: 30′, Compound of formula (II) [1]: 166%
- % Detected Compound, Incubation time: 120′, Compound of formula (II) [1]: 160%
- % Detected Compound, Incubation time: 30′, No Booster [1]: 141%
- % Detected Compound, Incubation time: 120′, No Booster [1]: 48%

SMILES: COc1ccc2c(O[C@@H]3C[C@H]4C(=O)N[C@]5(C(=O)NS(=O)(=O)C6CC6)C[C@H]5/C=C\CCCCN(C)C(=O)[C@@H]4C3)cc(-c3nc(C(C)C)cs3)nc2c1C [Compound 13]
- % Detected Compound, Incubation time: 30′, Compound of formula (II) [2]: 43% and 83%
- % Detected Compound, Incubation time: 120′, Compound of formula (II) [2]: 51% and 95%
- % Detected Compound, Incubation time: 30′, No Booster [2]: 90% and 87%
- % Detected Compound, Incubation time: 120′, No Booster [2]: 89% and 82%

SMILES: COc1ccc2c(O[C@@H]3C[C@H]4C(=O)N[C@]5(C(=O)NS(=O)(=O)C6CC6)C[C@H]5/C=C\CCCCCNC(=O)N4C3)cc(-c3nc(C(C)C)cs3)nc2c1 [Compound 18]
- % Detected Compound, Incubation time: 30′, Compound of formula (II) [1]: 131%
- % Detected Compound, Incubation time: 120′, Compound of formula (II) [1]: 196%
- % Detected Compound, Incubation time: 30′, No Booster [1]: 42%
- % Detected Compound, Incubation time: 120′, No Booster [1]: 0%

SMILES: COc1ccc2c(O[C@@H]3C[C@H]4C(=O)N[C@]5(C(=O)NS(=O)(=O)C6CC6)C[C@H]5/C=C\CCCCN(C)C(=O)N4C3)cc(-c3nc(C(C)C)cs3)nc2c1 [Compound 21]
- % Detected Compound, Incubation time: 30′, Compound of formula (II) [1]: 151%
- % Detected Compound, Incubation time: 120′, Compound of formula (II) [1]: 135%
- % Detected Compound, Incubation time: 30′, No Booster [1]: 109%
- % Detected Compound, Incubation time: 120′, No Booster [1]: 25%

SMILES: COc1ccc2c(O[C@@H]3C[C@H]4C(=O)N[C@]5(C(=O)NS(=O)(=O)C6CC6)C[C@H]5/C=C\CCCCCCC(=O)N4C3)cc(-c3nc(C(C)C)cs3)nc2c1 [Compound 26]
- % Detected Compound, Incubation time: 30′, Compound of formula (II) [1]: 128%
- % Detected Compound, Incubation time: 120′, Compound of formula (II) [1]: 101%
- % Detected Compound, Incubation time: 30′, No Booster [1]: 16%
- % Detected Compound, Incubation time: 120′, No Booster [1]: 0%

SMILES: CC(C)CN(C[C@H](O)[C@@H](Cc1ccccc1)NC(=O)OCc1cncs1)S(=O)(=O)c1ccc2nc(N)oc2c1 [compound of formula (II)]
- blocking of test compound metabolisation (10 μM compound of formula (II) added to 3 μM test compound, human liver microsomes): almost complete blocking

— patent US20120220520A1, “BIOAVAILABLE COMBINATIONS FOR HCV TREATMENT” (priority 2006, published 2012)
